Experimental findings from US20060257875A1, “Affinity screening using "one-bead-one-compound" libraries” (Carlsberg A/S, priority 2003, published 2006) are described below.

Experiment [1] has as its system normal porcine macrophage proteins. The experiment in a line: Solid phase screening of small molecule Library 7 with labeled viral and porcine macrophage proteins. To be noted: Normal Macrophages. The class given is binding. From the text: (§1) Alternatively, the fluorescent ligand library beads containing bound protein obtained as described in Examples 47, 48, 49 and 51 were sorted using a COPAS (250) NF Bead Sorter (Union Biometrica, Somerville, Mass.) equipped with a dual detector. Both the cyanine dyes used in the labeling procedure, namely Cy 2 (emission wavelength—510 nm) and Cy 3 (emission wavelength—570 nm) were simultaneously excited at […] The bead selection window was then set-up such that all beads containing significant green fluorescence and no red flourescence were isolated. The unselected beads were then resorted to obtain beads containing red fluorescence (proteins from basal cells). The selected red and green fluorescent beads were then sorted into brightly and less brightly fluorescent beads, to give an indication of either the strength of binding of the ligand to a particular protein or the amount of protein present in the sample binding to the ligand.
(§2) Ligands can be completely or partially identified by MALDI_TOF-MS whether or not the library is synthesized by ladder synthesis. […] The ligand is cleaved from the resin bead depending on the type of linker used. […] Peptide fragments (ladder synthesis) or single compounds were extracted from the bead with 0.5 AL CH3CN, then 0.5 FL 70% CH3CN/H2O. […] In the case of the acid labile Rink linker (Library 7), the compound was released from the bead by treatment with 95% TFA or 30 min. The TFA solution was evaporated and the cleaved compounds were extracted in 2 μL 70% acetonitrile+0.1% TFA. This mixture was then transferred to a stainless steel disc to which 0.4 μL of CHC matrix+1.0% TFA was added. An additional 0.4 μL of CHC matrix+1.0% TFA was added to complete sample application.
(§3) A typical analysis employed 100-300 laser shots. […] A typical analysis employed 200-300 laser shots. The possible identity of the ligand was determined (Narrowed down) by comparing the recorded mass of the ligand with the masses of all possible compounds formed in the library. This comparison was carried out using an in-house created computer program The precise identity of the ligand can then be confirmed using MS fragmentation as described in Example 41.
(§4) Isolated proteins that bound to specific ligands were identified using peptide mass fingerprinting. Mass spectra were recorded on a Bruker Reflex m MALDI time-of-flight mass spectrometer (Bruker-Daltonics, Bremen, Germany) operated in the positive reflectron mode using delayed extraction. Measurements were performed using the following parameters: Power 83-84 V; lens 7.300. The sum of 200-300 shots was used for each spectrum.
(§5) The spectra were calibrated using bradykinin peptide. In some cases, internal mass calibration was performed using a porcine trypsin autolysis product Peptide masses were searched against peptide mass maps in the National Center for Biotechnology Information (NCBI) database using the following search engines found on the world wide web (www.) for each of: • MS-FIT (prospector.ucsf.edu/ucsfhtml/msfit.htm), • Profound (129.85.19.192/profound_biniWebProFound.exe), and • MASCOT (matrixscience.com).
(§6) A search was performed using the NCBI bacterial (E. coli) database and the mammalian databases for the isolated proteins from the E. coli and myocyte samples, respectively, and the Swiss Prot mammalian databases and the Swiss Prot viral databases were searched to identify the porcine macrophage proteins and proteins, respectively. A molecular mass range was estimated from 0-250 K Da, allowing a mass accuracy that varied from 0.1 Da (some cases 0.3 Da) for each peptide mass. A large pI range from 0-14 or 0-12 was considered for each search. If no proteins matched, the mass window was extended. Partial enzyme cleavages allowing for two missed cleavage sites and modification of cysteine by alkylation were considered in the search approaches. A protein was considered identified if the matched peptides covered at least 30% of the complete sequence. […]

Experiment [2] has as its system porcine reproductive and respiratory virus infected macrophage proteins. The description is as above. In kind it is binding. To be noted: Virus-infected Macrophages, (V) indicates virus proteins.
Text: as §1, §2, §3, §4, §5, §6

The subject of experiment [3] is phenylephrine (PE)-treated myocyte proteins. The experiment in a line: Solid phase screening of Library 1 with labeled myocyte proteins; bound proteins identified by on-bead digest and peptide mass fingerprinting. The class given is binding, neonatal Wistar rats. To be noted: Library 1 ligand on PEGA4000 bead; Phenylephrine Treated (Hyperthrophic) Myocytes. How it is done:
Myocytes were prepared from 1 to 5 day old neonatal Wistar rats (University of Copenhagen) according to literature procedure described in Busk et al., 2002, Cardiovasc. Res., 56: 64-75 and plated into eight P10 culture plates at 6 million cells/plate.
Protein was extracted from myocytes prepared as described above for Example 9, using a new procedure modified from existing protocols, primarily: Arrott, et al., 1998, Anal Biochem. 258: 1-18. The media was removed from plates and adhered cells were treated for 10 minutes with ice cold phosphate buffer (0.25 mL, 10 mM, pH 7.5, augmented with 0.15 M NaCl 60 mM Benzamidine HCl, 5 mM EDTA, 10 μg/n E-64, 10 μg/mL Leu-peptin, 10 μg/mL Pepstatin A, and 1 mM PMSF). The cells were scraped off the plates and then lysed (on ice) in a sonicator (2×) using 10 seconds off/10 seconds on cycles.
The resulting suspension was augmented with CHAPS, DTT, and urea to a final concentration of CHAPS (1% w/v), DTT (5 mM), and urea (8 M). After 10-15 minutes on ice, the solution was centrifuged for 10 minutes at 15,000 rpm at 4° C. The supernatant was removed and protein content quantified using the NanoOrange Protein test (Molecular Probes, Eugene, Oreg.): Total protein recovered: 70.5 μg for PE-treated cells and 60 μg for basal cells.
Fluorescent dye Oregon Green 514 (OR) (Molecular Probes) was used to label the healthy/basal cells while Rhodamine Red (RR) (Molecular Probes) was used to label the PE-treated cells. The labeling procedures were carried out according to the manufacturer's protocol. The protein solutions (0.25 mL, 50.4 μg for PE cells and 0.25 mL, 42.8 μg for basal cells) were dialyzed against a solution of 10 mM phosphate buffer, 0.15 M NaCl, pH 7.5 and then 1 M NaHCO3 (0.025 mL) added to a final pH of 8.5. 10 μL of dye in dry DMF (10 mg/mL) was added and the sample stirred at room temperature for 2 hours. The protein solution was dialyzed extensively against 10 mM phosphate buffer, 0.15 M NaCl, pH 7.5, to remove excess dye.
Ligand library 1 (200 mg), prepared as described for Example 5, was transferred to a syringe fitted with a stop-valve and the ligand-beads were washed for 10 minutes (3×) with 10 mM phosphate buffer, pH 6.8, supplemented with 0.15 M NaCl, 1 mM Ca^2+, 1 mM Zn^2+, 1 mM Mn^2+, 1 mM Cu^2+, and 1 mM Mg^2+ (3 mL). The ligand-beads were treated with a 1% BSA solution for 30 minutes, then washed with buffer (1×). A mixture of labeled myocyte proteins, including both PE-induced protein (138 μL, 40 μg) and basal protein (167 μL, 40 μg) obtained as described above for Example 11, was prepared in 1.2 mL buffer, and added to the ligand library in the syringe. The proteins and ligand library were incubated at room temperature for 16 hours. The library was then washed with buffer for 5 minutes then with water for 3×5 minutes. The library was examined under a fluorescence microscope and brightly fluorescent red, green, and yellow beads (yellow indicative of both dyes red and green binding; the majority of the beads) were present, as well as unlabelled beads. The fluorescent beads were separated and retained for analysis.
The fluorescent ligand library beads containing bound protein obtained as described in Example 15 were sorted using a COPAS (250) NF Bead Sorter (Union Biometrica, Somerville, Mass.) equipped with a single flourescence emission. Beads emitting fluorescence of only one color contain proteins from one physical state, e.g. proteins expressed only in the PE-induced hypertrophic state (red) or proteins expressed only in the basal state (green). Since the instrument measures one fluorescence emission at a time, beads containing one type of color fluorescence were first sorted and then beads were resorted for emissions from the other fluorescence color. The library was first sorted such that all beads containing significant green fluorescence, basal proteins from healthy myocytes, were isolated. […]

A further experiment has as its system cardiac myocytes. In words: Inhibition of DNA synthesis (cardiac hypertrophy) in cardiac myocytes treated with peptides (FIG. 3). The class given is cell-based. The text has this: The columns indicate average induction of DNA synthesis in cardiac myocytes treated with peptides. The Y-axis indicates fold induction (control basal=100%).
The importance of six ligands in cardiac hypertrophy was investigated by examining the effect of the ligand on the increase in protein synthesis (meaured by increase in DNA synthesis) in myocytes that had been treated with serum to induce a hypertrophic state (FIG. 3).

Setting [4] is: hypertrophied myocytes (treated with serum to induce a hypertrophic state).

Several values for one entry are separate records, joined by “and”; a condition that tells them apart may be missing. Equal entries are not always repeated. Entries after “also recorded” stand apart in the source; their conditions may differ. Starred links: 1 amine or outer side, 2 acyl side, 3 side chain; linkers in the order of their positions; H or OH if unused. Non-standard residues stand in square brackets, D forms with d. No end group written: not given here. Gua = 4-S-(Di-Boc-guanidino)-L-proline, CC(C)(C)OC(=O)N=C(NC(=O)OC(C)(C)C)N[C@H]1C[C@@H](C(=O)[*:2])N([*:1])C1; Hyp = O=C(O)[C@@H]1C[C@@H](O)CN1

For the compound `Cc1ccc(-c2csc(C(=O)NCC(=O)O)c2)cc1`, in experiment [1], the “Identified Protein(s)” value is on record as “Salt inducible kinase 2 (27529963); PVHL-ubiqquitin interacting enzyme 2 (23208620); Similar to glyceral- dehyde-3-phosphate dehydrogenase (gi27686413)”.
Same read-out and setting: next, `O=C(O)[C@@H]1CCCN1C(=O)c1ccc(-c2ccco2)o1`: “Salt inducible kinase 2 (27529963); PVHL-ubiqquitin interacting enzyme 2 (23208620); Similar to glyceral- dehyde-3-phosphate dehydrogenase (gi27686413)”; `COc1ccccc1-c1ccc(C(=O)NCC(=O)O)o1`: “Salt inducible kinase 2 (27529963); PVHL-ubiqquitin interacting enzyme 2 (23208620); Similar to glyceral- dehyde-3-phosphate dehydrogenase (gi27686413)”.
For `COc1ccc(-c2ccc(C(=O)NCC(=O)O)o2)cc1`, the “Identified Protein(s)” value in experiment [1] was “Salt inducible kinase 2 (27529963); PVHL-ubiqquitin interacting enzyme 2 (23208620); Similar to glyceral- dehyde-3-phosphate dehydrogenase (gi27686413)”.
Take `NC[C@H](NC(=O)c1cccc(-c2ccco2)n1)C(=O)O`: the “Identified Protein(s)” value in experiment [1] was “Salt inducible kinase 2 (27529963); PVHL-ubiqquitin interacting enzyme 2 (23208620); Similar to glyceral- dehyde-3-phosphate dehydrogenase (gi27686413)”.
Regarding `COc1ccc(-c2ccc(C(=O)O)cc2)c(OC)c1C(=O)N[C@@H](Cc1c[nH]cn1)C(=O)O`, the “Identified Protein(s)” value in experiment [2] was “Carbohydrate (chondroitin synthase 2) (28466981); Glucosidase II alpha-subunit (gi5452936); Similar to chromosome 9 reading frame 24 (gi29437020) (V) Envelope glycoprotein C2V3 region (gi3925092); Envelope glycoprotein (gi15705767)”.
In the case of `COc1ccc(OC)c(-c2ccc(OC)c(C(=O)N[C@@H](Cc3c[nH]cn3)C(=O)O)c2OC)c1`, the “Identified Protein(s)” value in experiment [2] was “Carbohydrate (chondroitin synthase 2) (28466981); Glucosidase II alpha-subunit (gi5452936); Similar to chromosome 9 reading frame 24 (gi29437020) (V) Envelope glycoprotein C2V3 region (gi3925092); Envelope glycoprotein (gi15705767)”.
With `COc1ccc(OC)c(-c2ccc(C(=O)N[C@@H](Cc3ccc(OC)c(OC)c3)C(=O)O)o2)c1`, the “Identified Protein(s)” value in experiment [2] is “Carbohydrate (chondroitin synthase 2) (28466981); Glucosidase II alpha-subunit (gi5452936); Similar to chromosome 9 reading frame 24 (gi29437020) (V) Envelope glycoprotein C2V3 region (gi3925092); Envelope glycoprotein (gi15705767)”.
Regarding `COc1ccc(C[C@H](NC(=O)c2ccc(-c3ccc(C(=O)O)cc3)o2)C(=O)O)cc1OC`, the “Identified Protein(s)” value in experiment [2] was “Carbohydrate (chondroitin synthase 2) (28466981); Glucosidase II alpha-subunit (gi5452936); Similar to chromosome 9 reading frame 24 (gi29437020) (V) Envelope glycoprotein C2V3 region (gi3925092); Envelope glycoprotein (gi15705767)”.
Regarding `CC(O)[C@H](NC(=O)c1cc(-c2ccco2)cs1)C(=O)O` (stereo partly shown), the “Identified Protein(s)” value in experiment [2] is listed as “Unnamed protein product (26336134); Seri- ne/threonine kinase 9/cylin dependent Serine/threonine kinase 9(23271297/4507281); Caveolin 1(gi 4972627/AAD347221) (V) Envelope glycoprotein (gi 3832399)”.
With Abi-Thr-Hyp-Hyp-His-, in experiment [3], the “Identified Protein(s)” value is listed as “Phosphofructokinase (gi 7331123); Selenium binding pro-; also recorded: tein (gi 8848341/6677907); (Serine arginine rich pro-; also recorded: tein kinase (LA); Guanylate kinase (gi 20986250) (LA),; also recorded: (M); SPTR (gi 12842823) (M, Actin interacting protein”. The “extent of DNA synthesis” value in the experiment with cardiac myocytes (setting [4]) and in the experiment on cardiac myocytes (normal myocytes) was “reduced the extent of DNA synthesis” throughout.
On to “Lys-Met-Hyp-Trp-Tyr-Gun (KM[Hyp]WY[Gua])”, for which the “Identified Protein(s)” value in experiment [3] is on record as “Cell surface glycoprotein (gi 23603627); Hypothetical; also recorded: protein (XP-179829; gi 14720727)”.
In the case of Pal-Gly-Abi-Hyp-Pya-Trp, the “Identified Protein(s)” value in experiment [3] was “NAS putative unclassified (gi 12861084); Putative Zn; also recorded: finger protein 64 (gi 12849329)”.
Consider Phe-Abi-Pal-Hyp-Thr-Hyp, for which the “Identified Protein(s)” value in experiment [3] is listed as “Zinc finger associated protein gi 20304091; Ribosomal; also recorded: proteins 40S L series (gi 206736/133023);”.
Phe-Gua-Pal-Tyr-Gua-Tyr: the “Identified Protein(s)” value in experiment [3] is listed as “Glucose-6-Phosphatase (gi 6679893/15488608); Succinate; also recorded: dehydrogenase; ARL-interacting protein (gi 4927202); also recorded: (M); SPTR (gi 12834839) (M), Nucleic acid binding”. Besides, the “extent of DNA synthesis” value with cardiac myocytes (setting [4]) and with cardiac myocytes (normal myocytes) was “reduced the extent of DNA synthesis” in each case.
As for Pya-Gua-Abi-Asp-Abi-Tyr, the “Identified Protein(s)” value in experiment [3] is “SPTR (gi 20869775) (M); Ribosomal proteins (60s) (gi and 20875941/6677773); (Calcium channel (gi 3202010) (M): and Slo channel protein isoform (gi 3644046) (M); Potassium and conductance calcium activated channel (gi 6754436 and NP_034740) (M);; Regulator of G-protein signalling 8 and (gi 9507049)”. For the same compound, the “extent of DNA synthesis” value in the experiment with cardiac myocytes (setting [4]) and with cardiac myocytes (normal myocytes) was “reduced the extent of DNA synthesis” in each case.
